Measurements reported in patent US20240317777A1, “NOVEL MACROCYCLIC AMINOPYRAZOLE COMPOUNDS AS CDK2 INHIBITORS” (Accutar Biotechnology Inc., priority 2023, published 2024).
Where two headings read alike, the source gives them in different places. One block for each compound: values may come before it.

Legend:
CDK1-CYCLIN B = CDK1-CYCLIN B (Homo sapiens, UniProt P06493); experiment: CDK protein kinase inhibition by ADP-Glo assay, CDK1-CYCLIN B; assay type: biochemical; settings: for IC50: read-out: CDK1-CYCLINB, IC50; for CDK2 Fold selectivity against CDK1: Table 36, fold selectivity for CDK2 over CDK1, recombinant CDK kinases
Chain of CDK1-CYCLIN B (P06493 whole entry): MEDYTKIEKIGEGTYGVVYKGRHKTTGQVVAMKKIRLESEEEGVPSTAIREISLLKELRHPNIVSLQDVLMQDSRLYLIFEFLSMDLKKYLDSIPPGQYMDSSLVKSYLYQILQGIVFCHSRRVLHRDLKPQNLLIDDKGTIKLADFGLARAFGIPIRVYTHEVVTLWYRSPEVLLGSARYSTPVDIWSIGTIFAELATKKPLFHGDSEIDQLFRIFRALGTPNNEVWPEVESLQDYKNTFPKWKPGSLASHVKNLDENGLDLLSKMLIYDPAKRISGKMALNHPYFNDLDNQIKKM
Chain of CDK1-CYCLIN B (P14635 whole entry partner): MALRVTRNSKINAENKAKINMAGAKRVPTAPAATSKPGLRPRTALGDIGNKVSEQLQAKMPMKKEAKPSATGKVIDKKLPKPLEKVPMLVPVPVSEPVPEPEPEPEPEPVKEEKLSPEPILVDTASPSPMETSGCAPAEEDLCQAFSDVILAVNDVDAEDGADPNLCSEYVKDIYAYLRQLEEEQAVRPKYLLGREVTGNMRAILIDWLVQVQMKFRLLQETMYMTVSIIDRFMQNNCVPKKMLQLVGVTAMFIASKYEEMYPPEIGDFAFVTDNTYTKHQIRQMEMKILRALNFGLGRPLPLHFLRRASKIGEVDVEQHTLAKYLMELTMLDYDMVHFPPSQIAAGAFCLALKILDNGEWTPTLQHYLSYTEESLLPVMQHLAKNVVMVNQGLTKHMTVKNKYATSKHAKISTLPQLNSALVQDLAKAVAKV
Description: (§1) CDK Protein Kinase Inhibition by ADP-Glo Assay
(§2) This ADP-Glo assay measures ADP formed from a kinase reaction and indirectly quantifies the phosphorylation of peptide substrates by the CDK/cyclin protein complexes. The typical assays were carried out in Nanosyn by combining kinase/cyclin complexes, substrates, compounds, and cofactors (ATP and Mg2+) in a well of a 384-well microtiter plate (Corning 3824) and incubating at 22° C. (Table 1). At the end of the incubation, the reaction is quenched, and conversion is detected by luminescence using the Promega ADP-Glo™ Kinase Assay kit (catalog #V9102).
(§3) Final assay buffer mixture contains: • 100 mM HEPES, pH 7.5 • 0.1% BSA • 0.01% Triton X-100 • 1 mM DTT • 5 mM MgCl2 • 10 μM Sodium Orthovanadate • 100 μM Beta-Glycerophosphate • 1000 μM Ultra Pure ATP (provided in the Promega ADP-Glo™ Kinase Assay kit) • 1% DMSO (from compound)
(§4) Upon completion, 5 μL of the ADP Glo reagent was added to each well and the plate was further incubated at room temperature for 45 minutes. 10 uL of the Kinase Detection Reagent was subsequently added to each well. After 10 minutes of incubation, the plate was read and analyzed on the BioTek Synergy microplate reader using BioTek Gen5 software.

CDK2-CYCLIN E1 = CDK2-CYCLIN E1 (Homo sapiens, UniProt P24941); experiment: CDK protein kinase inhibition by ADP-Glo assay, CDK2-CYCLIN E1; assay type: biochemical; settings: read-out: CDK2-CYCLINE, IC50
Description: as §1, §2, §3, §4

CDK4-CYCLIN D1 = CDK4-CYCLIN D1 (Homo sapiens, UniProt P11802); experiment: CDK protein kinase inhibition by ADP-Glo assay, CDK4-CYCLIN D1; assay type: biochemical; settings: for IC50: read-out: CDK4-CYCLIND1, IC50; for CDK2 Fold selectivity against CDK4: Table 36, fold selectivity for CDK2 over CDK4, recombinant CDK kinases
Chain of CDK4-CYCLIN D1 (P11802 whole entry): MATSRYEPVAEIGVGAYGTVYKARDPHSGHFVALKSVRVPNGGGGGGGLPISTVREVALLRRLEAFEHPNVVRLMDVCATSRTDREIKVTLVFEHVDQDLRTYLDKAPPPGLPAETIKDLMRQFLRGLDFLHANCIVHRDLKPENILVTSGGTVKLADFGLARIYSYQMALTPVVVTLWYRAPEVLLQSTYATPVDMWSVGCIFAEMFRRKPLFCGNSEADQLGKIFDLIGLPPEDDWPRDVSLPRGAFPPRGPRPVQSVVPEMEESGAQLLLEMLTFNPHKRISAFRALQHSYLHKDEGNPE
Chain of CDK4-CYCLIN D1 (P24385 whole entry partner): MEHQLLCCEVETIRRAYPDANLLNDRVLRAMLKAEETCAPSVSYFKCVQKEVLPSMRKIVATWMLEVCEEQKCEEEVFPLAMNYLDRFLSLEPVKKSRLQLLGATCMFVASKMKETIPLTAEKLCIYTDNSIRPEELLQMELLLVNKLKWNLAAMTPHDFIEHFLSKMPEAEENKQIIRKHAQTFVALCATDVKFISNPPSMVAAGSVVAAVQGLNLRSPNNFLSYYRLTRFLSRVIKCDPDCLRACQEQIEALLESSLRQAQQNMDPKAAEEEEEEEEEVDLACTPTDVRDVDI
Description: as §1, §2, §3, §4

CDK6-CYCLIN D3 = CDK6-CYCLIN D3 (Homo sapiens, UniProt Q00534); experiment: CDK protein kinase inhibition by ADP-Glo assay, CDK6-CYCLIN D3; assay type: biochemical; settings: for IC50: read-out: CDK6-CYCLIND3, IC50; for CDK2 Fold selectivity against CDK6: Table 36, fold selectivity for CDK2 over CDK6, recombinant CDK kinases
Chain of CDK6-CYCLIN D3 (Q00534 whole entry): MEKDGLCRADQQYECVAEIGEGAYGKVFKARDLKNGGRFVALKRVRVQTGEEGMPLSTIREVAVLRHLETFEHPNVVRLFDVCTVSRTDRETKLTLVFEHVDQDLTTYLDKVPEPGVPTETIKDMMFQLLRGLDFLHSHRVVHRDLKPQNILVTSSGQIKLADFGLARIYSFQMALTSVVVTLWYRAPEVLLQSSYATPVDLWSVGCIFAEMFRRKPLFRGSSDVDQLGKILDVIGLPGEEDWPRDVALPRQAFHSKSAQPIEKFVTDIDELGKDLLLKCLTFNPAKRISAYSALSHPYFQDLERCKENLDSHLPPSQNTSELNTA
Chain of CDK6-CYCLIN D3 (P30281 whole entry partner): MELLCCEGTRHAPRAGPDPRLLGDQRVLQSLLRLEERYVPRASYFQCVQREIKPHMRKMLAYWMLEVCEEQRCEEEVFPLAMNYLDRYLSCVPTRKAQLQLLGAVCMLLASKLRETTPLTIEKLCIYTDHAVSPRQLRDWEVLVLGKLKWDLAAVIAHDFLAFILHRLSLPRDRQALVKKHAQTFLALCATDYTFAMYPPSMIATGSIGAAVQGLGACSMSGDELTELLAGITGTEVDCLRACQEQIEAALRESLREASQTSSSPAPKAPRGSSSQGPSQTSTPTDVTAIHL
Description: as §1, §2, §3, §4

CDK9-CYCLIN T1 = CDK9-CYCLIN T1 (Homo sapiens, UniProt P50750); experiment: CDK protein kinase inhibition by ADP-Glo assay, CDK9-CYCLIN T1; assay type: biochemical; settings: for CDK2 Fold selectivity against CDK9: Table 36, fold selectivity for CDK2 over CDK9, recombinant CDK kinases
Chain of CDK9-CYCLIN T1 (P50750 whole entry): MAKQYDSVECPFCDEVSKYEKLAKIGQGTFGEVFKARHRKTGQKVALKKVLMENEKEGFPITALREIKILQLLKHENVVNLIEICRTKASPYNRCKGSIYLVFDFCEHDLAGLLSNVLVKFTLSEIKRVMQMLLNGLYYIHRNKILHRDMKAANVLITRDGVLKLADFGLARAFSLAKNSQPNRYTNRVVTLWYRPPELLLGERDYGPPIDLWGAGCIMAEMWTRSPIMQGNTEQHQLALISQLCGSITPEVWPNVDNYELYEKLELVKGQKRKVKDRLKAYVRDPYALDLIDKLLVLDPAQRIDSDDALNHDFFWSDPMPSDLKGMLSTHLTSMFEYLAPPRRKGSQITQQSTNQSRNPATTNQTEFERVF
Chain of CDK9-CYCLIN T1 (O60563 whole entry partner): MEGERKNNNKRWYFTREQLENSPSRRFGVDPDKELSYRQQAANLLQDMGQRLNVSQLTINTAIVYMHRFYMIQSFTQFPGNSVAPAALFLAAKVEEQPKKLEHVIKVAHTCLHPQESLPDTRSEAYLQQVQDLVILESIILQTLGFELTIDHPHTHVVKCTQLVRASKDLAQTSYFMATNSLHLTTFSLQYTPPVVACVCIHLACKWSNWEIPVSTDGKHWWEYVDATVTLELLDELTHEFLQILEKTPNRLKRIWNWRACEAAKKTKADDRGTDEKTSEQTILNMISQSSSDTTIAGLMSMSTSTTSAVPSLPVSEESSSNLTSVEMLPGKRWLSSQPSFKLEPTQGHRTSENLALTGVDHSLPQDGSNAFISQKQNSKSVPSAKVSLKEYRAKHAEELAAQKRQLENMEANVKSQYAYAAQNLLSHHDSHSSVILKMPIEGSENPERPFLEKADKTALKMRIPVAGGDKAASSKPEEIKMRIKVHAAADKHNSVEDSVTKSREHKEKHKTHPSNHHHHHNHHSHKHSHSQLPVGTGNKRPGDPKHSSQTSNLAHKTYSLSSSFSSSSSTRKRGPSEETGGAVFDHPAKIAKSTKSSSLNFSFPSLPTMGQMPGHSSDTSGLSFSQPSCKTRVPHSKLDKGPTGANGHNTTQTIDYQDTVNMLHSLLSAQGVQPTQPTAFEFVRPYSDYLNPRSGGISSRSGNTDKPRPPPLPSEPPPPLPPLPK
Description: as §1, §2, §3, §4

[1] = test system: Phospho-Rb (Ser807/811) in OVCAR3 cells; experiment: Phospho-Rb expression inhibition in OVCAR3 cells quantified by In Cell Western; assay type: cell-based; settings: Homo sapiens, OVCAR-3, 24 hours, read-out: OVCAR-3 pRb IC50
Outline: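 In-cell western: after 24 h compound exposure at 37° C, fixed OVCAR3 cells co-stained for pRb Ser807/811 (800 nm channel) and total Rb (680 nm channel), imaged by LI-COR Odyssey.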

[2] = test system: CCNE1-amplified OVCAR3 cells; experiment: Cell growth inhibition of CCNE1-amplified OVCAR3 cells (CellTiter-Glo); assay type: cell-based; settings: Homo sapiens, OVCAR-3, 144 h, 6 days
Outline: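 Growth read-out was CellTiter-Glo luminescence, taken after 10 min at room temperature at the end of a 6-day compound exposure at 37 °C. Compounds were diluted from DMSO stocks across various concentrations.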

CCNE1-normal SKOV3 cells = experiment: Cell growth inhibition of CCNE1-normal SKOV3 cells (CellTiter-Glo); assay type: cell-based; settings: Homo sapiens, SK-OV-3, 144 h, 6 days
Outline: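 Growth was measured by CellTiter-Glo luminescence after 6 days' compound exposure at 37 °C. Cells were plated one day before dosing at 1000 per well in medium with 10% FBS, and compounds were diluted from DMSO stocks.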

[3] = Table 35, recombinant CDK kinase
[4] = Table 35, recombinant CDK kinase, read-out: CDK9-CYCLINT1, IC50

Structure (SMILES): C[C@@H]1CCCOc2cc(ccn2)Nc2cc([nH]n2)[C@H]2CC[C@H](C2)OC(=O)N1 [Compound 10, (1^1S,1^3R,9R,Z)-9-methyl-2^1H-5,12-dioxa-3,10-diaza-4(4,2)-pyridina-2(3,5)-pyrazola-1(1,3)-cyclopentanacyclododecaphan-11-one]
IC50 (CDK1-CYCLIN B; ADP-Glo, 1000 μM ATP, Table 7): 100 to 500 nM
CDK2 fold selectivity over CDK1 (CDK1-CYCLIN B; CDK2 versus CDK1, Table 8): D (D, >20 and ≤50)
IC50 (CDK2-CYCLIN E1; ADP-Glo, 1000 μM ATP, Table 7): ≤ 10 nM
IC50 (CDK4-CYCLIN D1; ADP-Glo, 1000 μM ATP, Table 7): 100 to 500 nM
CDK2 Fold Sensitivity, CDK4 (CDK4-CYCLIN D1; CDK2 versus CDK4, Table 8): C (C, >50 and ≤100)
IC50 (CDK6-CYCLIN D3; ADP-Glo, 1000 μM ATP, Table 7): 100 to 500 nM
CDK2 Fold Sensitivity, CDK6 (CDK6-CYCLIN D3; CDK2 versus CDK6, Table 8): C (C, >50 and ≤100)
IC50 (CDK9-CYCLIN T1; ADP-Glo, 1000 μM ATP, Table 7, read-out: CDK9-CYCLINT1, IC50): > 500 nM
CDK2 Fold Sensitivity, CDK9 (CDK9-CYCLIN T1; CDK2 versus CDK9, Table 8): B (B, >100 and ≤500)
IC50 [1]: 10 to 50 nM
IC50 [2]: 50 to 250 nM
IC50 (CCNE1-normal SKOV3 cells): > 1250 nM

Structure (SMILES): C[C@H]1CCCCc2cc(ccn2)Nc2cc(n[nH]2)[C@H]2CC[C@H](C2)OC(=O)N1 [Compound 114, (1^1S,1^3R,9S,Z)-9-methyl-2^1H-12-oxa-3,10-diaza-4(4,2)-pyridina-2(3,5)-pyrazola-1(1,3)-cyclopentanacyclododecaphan-11-one]
IC50 (CDK1-CYCLIN B; ADP-Glo, 1000 μM ATP, Table 19): 100 to 500 nM
CDK2 Fold selectivity, CDK1 (CDK1-CYCLIN B; CDK2 versus CDK1, Table 20): E (E, <20)
IC50 (CDK2-CYCLIN E1; ADP-Glo, 1000 μM ATP, Table 19): ≤ 10 nM
IC50 (CDK4-CYCLIN D1; ADP-Glo, 1000 μM ATP, Table 19): 50 to 100 nM
CDK2 Fold selectivity, CDK4 (CDK4-CYCLIN D1; CDK2 versus CDK4, Table 20): E (E, <20)
IC50 (CDK6-CYCLIN D3; ADP-Glo, 1000 μM ATP, Table 19): 100 to 500 nM
CDK2 Fold selectivity, CDK6 (CDK6-CYCLIN D3; CDK2 versus CDK6, Table 20): E (E, <20)
IC50 (CDK9-CYCLIN T1; ADP-Glo, 1000 μM ATP, Table 19, read-out: CDK9-CYCLINT1, IC50): 100 to 500 nM
CDK2 Fold selectivity, CDK9 (CDK9-CYCLIN T1; CDK2 versus CDK9, Table 20): D (D, >20 and ≤50)
IC50 [1]: 10 to 50 nM
IC50 [2]: 10 to 50 nM
IC50 (CCNE1-normal SKOV3 cells): 250 to 1250 nM

Structure (SMILES): C[C@@H]1CC[C@H](C)Oc2cncc(c2)Nc2cc(n[nH]2)[C@H]2CC[C@H](C2)OC(=O)N1 [Compound 152, (1^1S,1^3R,6S,9R,Z)-6,9-dimethyl-2^1H-5,12-dioxa-3,10-diaza-4(3,5)-pyridina-2(3,5)-pyrazola-1(1,3)-cyclopentanacyclododecaphan-11-one]
IC50 (CDK1-CYCLIN B; ADP-Glo, 1000 μM ATP, Table 21): 10 to 50 nM
CDK2 Fold selectivity, CDK1 (CDK1-CYCLIN B; CDK2 versus CDK1, Table 22): E (E, <20)
IC50 (CDK2-CYCLIN E1; ADP-Glo, 1000 μM ATP, Table 21): ≤ 10 nM
IC50 (CDK4-CYCLIN D1; ADP-Glo, 1000 μM ATP, Table 21): 50 to 100 nM
CDK2 Fold selectivity, CDK4 (CDK4-CYCLIN D1; CDK2 versus CDK4, Table 22): D (D, >20 and ≤50)
IC50 (CDK6-CYCLIN D3; ADP-Glo, 1000 μM ATP, Table 21): 50 to 100 nM
CDK2 Fold selectivity, CDK6 (CDK6-CYCLIN D3; CDK2 versus CDK6, Table 22): E (E, <20)
IC50 (CDK9-CYCLIN T1; ADP-Glo, 1000 μM ATP, Table 21, read-out: CDK9-CYCLINT1, IC50): 100 to 500 nM
CDK2 Fold selectivity, CDK9 (CDK9-CYCLIN T1; CDK2 versus CDK9, Table 22): D (D, >20 and ≤50)
IC50 [1]: 2 to 10 nM
IC50 [2]: 10 to 50 nM
IC50 (CCNE1-normal SKOV3 cells): 250 to 1250 nM

The next lines start with results.

IC50 (CDK1-CYCLIN B; ADP-Glo, 1000 μM ATP, Table 23): 10 to 50 nM
IC50 (CDK2-CYCLIN E1; ADP-Glo, 1000 μM ATP, Table 23): ≤ 10 nM
IC50 (CDK4-CYCLIN D1; ADP-Glo, 1000 μM ATP, Table 23): 10 to 50 nM
IC50 (CDK6-CYCLIN D3; ADP-Glo, 1000 μM ATP, Table 23): 50 to 100 nM
IC50 (CDK9-CYCLIN T1; ADP-Glo, 1000 μM ATP, Table 23, read-out: CDK9-CYCLINT1, IC50): 50 to 100 nM
IC50 [1]: 2 to 10 nM
IC50 [2]: 2 to 10 nM
Structure (SMILES): C[C@@H]1OCC[C@H](C)NC(=O)O[C@@H]2CC[C@@H](C2)c2cc([nH]n2)Nc2ccnc1c2 [compound 159]
IC50 (CCNE1-normal SKOV3 cells): 50 to 250 nM

IC50 (CDK1-CYCLIN B; ADP-Glo, 1000 μM ATP, Table 27): 10 to 50 nM
CDK2 Fold selectivity, CDK1 (CDK1-CYCLIN B; CDK2 versus CDK1, Table 28): E (E, <20)
IC50 (CDK1-CYCLIN B; [3]): 10 to 50 nM
CDK2 Fold selectivity against CDK1 (CDK1-CYCLIN B): E (E, <20)
IC50 (CDK2-CYCLIN E1; ADP-Glo, 1000 μM ATP, Table 27): ≤ 10 nM
IC50 (CDK2-CYCLIN E1; [3]): ≤ 10 nM
IC50 (CDK4-CYCLIN D1; ADP-Glo, 1000 μM ATP, Table 27): 50 to 100 nM
CDK2 Fold selectivity, CDK4 (CDK4-CYCLIN D1; CDK2 versus CDK4, Table 28): D (D, >20 and ≤50)
IC50 (CDK4-CYCLIN D1; [3]): 10 to 50 nM
CDK2 Fold selectivity against CDK4 (CDK4-CYCLIN D1): E (E, <20)
IC50 (CDK6-CYCLIN D3; ADP-Glo, 1000 μM ATP, Table 27): 100 to 500 nM
CDK2 Fold selectivity, CDK6 (CDK6-CYCLIN D3; CDK2 versus CDK6, Table 28): D (D, >20 and ≤50)
IC50 (CDK6-CYCLIN D3; [3]): 10 to 50 nM
CDK2 Fold selectivity against CDK6 (CDK6-CYCLIN D3): E (E, <20)
IC50 (CDK9-CYCLIN T1; ADP-Glo, 1000 μM ATP, Table 27, read-out: CDK9-CYCLINT1 IC50): 100 to 500 nM
CDK2 Fold selectivity, CDK9 (CDK9-CYCLIN T1; CDK2 versus CDK9, Table 28): D (D, >20 and ≤50)
IC50 (CDK9-CYCLIN T1; [4]): 50 to 100 nM
CDK2 Fold selectivity against CDK9 (CDK9-CYCLIN T1): D (D, >20 and ≤50)
IC50 [1]: 2 to 10 nM
IC50 [2]: 10 to 50 nM
Structure (SMILES): [2H]C1([2H])Oc2cc(ccn2)Nc2cc(n[nH]2)[C@H]2CC[C@H](C2)OC(=O)N[C@H]2C[C@H]1C2 [Compound 177, (1^1S,1^3R,7^1R,7^3S,Z)-2^1H-5,10-dioxa-3,8-diaza-4(4,2)-pyridina-2(3,5)-pyrazola-1(1,3)-cyclopentana-7(1,3)-cyclobutanacyclodecaphan-9-one-6,6-d2]

IC50 (CDK1-CYCLIN B; [3]): 50 to 100 nM
CDK2 Fold selectivity against CDK1 (CDK1-CYCLIN B): E (E, <20)
IC50 (CDK2-CYCLIN E1; [3]): ≤ 10 nM
IC50 (CDK4-CYCLIN D1; [3]): 100 to 500 nM
CDK2 Fold selectivity against CDK4 (CDK4-CYCLIN D1): C (C, >50 and ≤100)
IC50 (CDK6-CYCLIN D3; [3]): 100 to 500 nM
CDK2 Fold selectivity against CDK6 (CDK6-CYCLIN D3): C (C, >50 and ≤100)
IC50 (CDK9-CYCLIN T1; [4]): > 500 nM
CDK2 Fold selectivity against CDK9 (CDK9-CYCLIN T1): B (B, >100 and ≤500)
IC50 [1]: 10 to 50 nM
IC50 [2]: 10 to 50 nM
Structure (SMILES): [2H]C1([2H])Oc2cc(ccn2)Nc2[nH]nc(c2F)[C@H]2CC[C@H](C2)OC(=O)N[C@H]2C[C@H]1C2 [Compound 221, (1^1S,1^3R,7^1R,7^3S,E)-24-fluoro-2^1H-5,10-dioxa-3,8-diaza-4(4,2)-pyridina-2(3,5)-pyrazola-1(1,3)-cyclopentana-7(1,3)-cyclobutanacyclodecaphan-9-one-6,6-d2]
